Experimental data reported in patent US20210177861A1, “NRF2 ACTIVATOR FOR THE TREATMENT OF ACUTE LUNG INJURY, ACUTE RESPIRATORY DISTRESS SYNDROME AND MULTIPLE ORGAN DYSFUNCTION SYNDROME” (GLAXOSMITHKLINE INTELLECTUAL PROPERTY DEVELOPMENT LIMITED, priority 2017, published 2021).
Entries after “also recorded” stand apart in the source; their conditions may differ.

Columns and labels:
[1] = test system: animals with hyperoxia-induced ALI; conditions: animals treated with Bardoxolone; cited from earlier work
rats exposed to ozone [2] = assay: Ozone-induced lung injury (1 ppm of ozone for 3 hours); type: in vivo, rat; conditions: 3 μmol/kg i.t. 24 hours prior to 1 ppm ozone for 3 hours, sacrificed four hrs later
Procedure: FIG. 4 depicts the effect of NRF2 activator Compound I on ozone-induced changes in lung wet to dry weight ratio (FIG. 4A) and relative mtDNA copy number (FIG. 4B). Rats were administered the NRF2 activator (3 μmol/kg i.t.) 24 hours prior to ozone exposure (1 ppm of ozone for 3 hours). Four hrs later the animals were sacrificed. All data represent means±S.E.M. (*, **, *** refer to p<0.05, 0.01 and 0.001, respectively).
Age-matched male Lewis rats (250-400 g, Charles River Breeding Laboratories, Wilmington, Mass.) were allowed free access to food and water. Animals were administered NRF2 compound via tracheal instillation 24 hours prior to oxidative insult. […]
In another study, rats were exposed to ozone (2.0 ppm) for a 3 hr period twice a week with a resting period of 2 days between treatments. […] Ozone was generated (Oxycycler ozonator (model# A84ZV, Biospherix Inc., Lacona, N.Y.) by passing room air through the ozonator at a rate of 50-75 cm^3/min, mixing it with filtered room air at a rate of 10 L/min, and flowing this sample into a Plexiglass chamber containing the rodents. Ozone, carbon dioxide and humidity levels in the chamber were constantly monitored (Ozone Monitor Model 450, Teledyne Advanced Pollution Instrumentation, Inc., Thousand Oaks, Calif.). The animals were euthanized as described above 24 hrs after the last exposure to ozone. See FIG. 4-5. […]

rats exposed to ozone [3] = assay: Severe ozone exposure (faulty ventilation, ozone above intended 1 ppm): death and glutathione; type: in vivo, rat
Source text: FIG. 5 depicts the protection offered by NRF2 activator Compound I against ozone-induced death (FIG. 5A) and loss of glutathione (FIG. 5B). Due to an unknown faulty ventilation system, ozone in the chamber built up to levels (unable to quantify) above those normally used in other studies. The intended exposure was 1 ppm. For those animals that survived, tissue values of NRF2-related parameters were examined 24 hrs. after ozone exposure. In addition, animals exposed to ozone within the control group were combined. All data represent means±S.E.M. (*, **, *** refer to p<0.05, 0.01 and 0.001, respectively). […]
In another study, rats were exposed to ozone (2.0 ppm) for a 3 hr period twice a week with a resting period of 2 days between treatments. […] Ozone was generated (Oxycycler ozonator (model# A84ZV, Biospherix Inc., Lacona, N.Y.) by passing room air through the ozonator at a rate of 50-75 cm^3/min, mixing it with filtered room air at a rate of 10 L/min, and flowing this sample into a Plexiglass chamber containing the rodents. Ozone, carbon dioxide and humidity levels in the chamber were constantly monitored (Ozone Monitor Model 450, Teledyne Advanced Pollution Instrumentation, Inc., Thousand Oaks, Calif.). The animals were euthanized as described above 24 hrs after the last exposure to ozone. See FIG. 4-5.

mice exposed to ozone = assay: Repeated ozone exposure, alveolar barrier breakdown (serum surfactant protein-D, mtDNA); type: in vivo, mouse; conditions: FIG. 6
Procedure: Mice were exposed to ozone (1.5 ppm) for 3 hrs, twice per week for 3 weeks. Compound 1 was administered for 5 days/week, with the first dose administered 1 hour prior to first ozone administration. Blood/serum was collected 2 hrs after the final ozone exposure. Surfactant protein-D was measured using a commercially available ELISA kit. All data represent mean+/−S.E.M.
For determination of mtDNA damage (21), 15 ng of DNA in long chain PCR buffer was coupled with appropriate long and short primers for murine tissues. The reaction mixture was essentially the same for both long and short runs with the exception that the [Mg++] was 1.2 and 1.1 mM, respectively. For mouse tissues, the following thermocycler conditions were utilized: 94° C.×2 min followed by 19 cycles at 94° C.×15 sec, 64° C.×30 sec, 68° C.×8 min and finished at 72° C.×7 min; 94° C.×2 min, 94° C.×15 sec, 60° C.×30 sec, 72° C.×45 sec, and finished at 72° C.×7 min for the long and short PCR, respectively. The long and short primer sequences for mouse;
For both species, the long and short PCR products were then diluted 1:10 with Tris EDTA buffer containing 5 μl/ml of Pico Green (Molecular Probes, Invitrogen, Carlsbad Calif.) and fluorescence was monitored (485 nm excitation/528 nm emission, Envision Perkin Elmer, Waltham, Mass.). The replicates for each sample were averaged, the long primer was subtracted from the short primer, and transformed into percent of control using normalization functions (GraphPad Prism v6.0, La Jolla, Calif.). The data were calculated to reflect an increase in damage by subtracting the long primer from the short primer, rather than the opposite which would show the reduction of signal.
Surfactant protein-D (SP-D) was measured using a commercially available kit (Mouse Quantikine SP-D, R&D Systems #MSFPDO, Minneapolis, Minn.). Absorbances were monitored at 450 and 540 nm using a microplate spectrophotometer (Powerwave, BioTek, Winooski, Vt.) with Gen5 software (version 2.03.Ink). […] Degradation or breakdown of alveolar barrier and leakage of water into the alveolar is measured by wet:dry ratio. […]

paraquat-treated rats = assay: PQ-induced acute lung injury model (tracheal instillation of paraquat); type: in vivo, rat
Source text: The model of PQ-induced increase in lung edema formation described in Rumsey, W., et al., (Mutagenesis. 2017, 32(3):343-353) is incorporated by reference in its entirety. In support of this invention, ALI was stimulated by the tracheal instillation of PQ which damages mtDNA in lung cells and provokes a loss of epithelial/endothelial integrity and edema formation.
Age-matched male Lewis rats (250-400 g, Charles River Breeding Laboratories, Wilmington, Mass.) were allowed free access to food and water. Animals were administered NRF2 compound via tracheal instillation 24 hours prior to oxidative insult.
For studies using PQ (or N,N′-dimethyl-4,4′-[…], Sigma Aldrich, St Louis, Mo.) as the toxin, aliquots were prepared in sterile phosphate-buffered saline (PBS) and instilled directly to the trachea of the rat while under isoflurane anesthesia. Rats were anesthetized in a small acrylic induction box with 2-5% isoflurane gas. When surgical anesthesia was obtained (assessed by loss of the righting reflex followed by use of the pedal withdrawal reflex), the rat was removed from the box and placed supine on a head up, tilted platform. The trachea was illuminated and either PQ or vehicle (300 μl, doses identified in figure legends) was directly instilled into the trachea, anterior to the primary bifurcation at the carina, using a blunt-tipped needle. The animal was returned to a recovery cage, where the righting reflex was regained in 2-3 minutes.
To monitor changes in airway mechanics, rats were placed into individual plethysmograph chambers (BUXCO Electronics, Troy, N.Y.). Fresh air was supplied by bias flow pumps to the chambers. Baseline respiratory (Penh) values were collected prior to administration of PQ and on succeeding days after administration of the agent. An average Penh was calculated for a period of 5 min where enhanced pause (Penh=[(expiratory time/relaxation time)−1]×(peak expiratory flow/peak inspiratory flow)) and relaxation time is the amount of time required for 70% of the tidal volume to be expired.
For measurements of edema formation in the lungs, the tissue was excised and weighed gravimetrically. A portion was dried overnight in an oven at […]. and weighed for dry weight.
In some studies, bronchoalveolar lavage was performed to identify the immune cells infiltrating the lung in response to the toxicant. After the animals were euthanized (Fatal Plus, 100 mg/kg i.p.), the trachea was surgically exposed and a blunt-tipped needle was inserted into the trachea for administration of lavage fluid (5×5 ml Dulbecco's phosphate buffered saline, PBS). The lavage fluid was collected, placed on ice and centrifuged (3000 rpm×10 min, Beckman-Coulter, Danvers, Mass.). Supernatant was aspirated and frozen whereas the pellet was resuspended in 5 ml of PBS. An aliquot (100 μl) was centrifuged (300 rpm×5 min, cytospin, Thermo-Shandon, Waltham, Mass.) and a separate sample prepared as 1:5 dilution for total cell counts using a hemocytometer. Aliquots of cells were placed on slides and stained (Kwik-Diff-Quick, Thermo-Shandon, Waltham, Mass.) according to manufacturer's instructions. At least 200 cells were counted and percentages of different cell types were calculated (macrophages and neutrophils).
For extraction of either RNA or DNA, the tissue was added to lysis buffer (Kingfisher DNA or RNA extraction kit, Thermo Fisher Scientific, Waltham, Mass.) and the samples were processed according to the manufacturer's instructions. The nucleotide quantities were determined with respective Qubit kits (Thermo Fisher, Waltham, Mass.). For measurement of mtDNA copy number by quantitative real time PCR, nuclear and mitochondrial primer sets (1 pmol/μl), and 2× SYBR green master mix (Life Technologies, Waltham, Mass.) were added to 50 ng of DNA combined with water (total 20 ul). […]

[4] = test system: murine model of PQ-induced ALI; conditions: treatment with DNasel; cited from earlier work
[5] = relative to the PQ treated vehicle control animals, FIG. 3

CC1(C)CC[C@]2(C(=O)O)CC[C@]3(C)[C@H](C(=O)C=C4[C@@]5(C)C=C(C#N)C(=O)C(C)(C)[C@@H]5CC[C@]43C)[C@@H]2C1 [Bardoxolone]
protection from hyperoxia-induced ALI [1]: protected them from hyperoxia-induced ALI

CC[C@@H]1CN(Cc2cc([C@H](CC(=O)O)c3ccc4c(nnn4CC)c3C)ccc2C)S(=O)(=O)c2cccnc2O1 [Compound I, (S)-3-(3-(((R)-4-ethyl-1,1-dioxido-3,4-dihydro-2H-pyrido[2,3-b][1,4,5]oxathiazepin-2-yl)methyl)-4-methylphenyl)-3-(1-ethyl-4-methyl-1H-benzo[d][1,2,3]triazol-5-yl)propanoic acid]
ozone-induced edema formation (lung wet to dry weight ratio) (rats exposed to ozone [2]; FIG. 4A): protected | ozone-induced mtDNA damage (relative mtDNA copy number) (rats exposed to ozone [2]; FIG. 4B): protected | ozone-induced death (survival) (rats exposed to ozone [3]; severe ozone exposure, level unable to quantify (intended 1 ppm), FIG. 5A): protection; also recorded: survive the lethal insult | ozone-induced loss of glutathione (rats exposed to ozone [3]; surviving animals, tissue 24 hrs after ozone exposure, FIG. 5B): protection | degradation or breakdown of the alveolar barrier (mice exposed to ozone; mice, ozone 1.5 ppm 3 hrs twice per week for 3 weeks): prevented; also recorded: protective effect | surfactant D (serum surfactant protein-D), biomarker of epithelial/alveolar barrier integrity (mice exposed to ozone; mice, ozone 1.5 ppm 3 hrs twice per week for 3 weeks, dosing 5 days/week, serum 2 hrs after final ozone exposure): dose dependently prevented | changes in mtDNA (mice exposed to ozone; repeated ozone exposures): dose dependently prevented | inflammatory immune cells in bronchoalveolar lavage fluid (macrophages and neutrophils) (paraquat-treated rats; paraquat-treated rats, FIG. 2): decreased numbers of immune cells in the bronchoalveolar lavage fluid; also recorded: reduction in inflammatory immune cells | NQO1 activity (NRF2-mediated gene expression) (paraquat-treated rats; rat lung, PQ-treated, FIG. 3B): stimulated an upregulation of NQO1 activity | DNA oxidation (8-OHdG levels) (paraquat-treated rats; rat lung, PQ-treated, FIG. 3C): attenuating the impact of PQ on DNA oxidation | PQ-mediated mtDNA damage (relative mtDNA copy number) (paraquat-treated rats; rat lung, FIG. 3A): blockade of mtDNA damage; also recorded: prevented | lung function, expressed as Penh (paraquat-treated rats; rats, Compound I suspension i.t. 24 hrs prior to PQ (0.05 mg/kg i.t.), FIG. 1A): improves lung function | lung edema formation, lung wet:dry weight ratio (paraquat-treated rats; rats, Compound I suspension i.t. 24 hrs prior to PQ (0.05 mg/kg i.t.), FIG. 1B): maintenance of the lung wet:dry ratio; also recorded: protecting against the PQ-induced increase in lung edema formation | TXNRD1 gene expression (paraquat-treated rats; [5]): exception | expression of other NRF2 genes (GCLC, HO-1, etc.) (paraquat-treated rats; [5]): up-regulated

B1: DNasel: DNasel, presumably targeting expulsed mtDNA (protein, UniProt P24855 23-282, looked up)
Deoxyribonuclease-1: LKIAAFNIQTFGETKMSNATLVSYIVQILSRYDIALVQEVRDSHLTAVGKLLDNLNQDAPDTYHYVVSEPLGRNSYKERYLFVYRPDQVSAVDSYYYDDGCEPCGNDTFNREPAIVRFFSRFTEVREFAIVPLHAAPGDAVAEIDALYDVYLDVQEKWGLEDVMLMGDFNAGCSYVRPSQWSSIRLWTSPTFQWLIPDSADTTATPTHCAYDRIVVAGMLLRGAVVPDSALPFNFQAAYGLSDQLAQAISDHYPVEVMLK
PQ-induced lung injury and survival [4]: Protection from PQ-induced lung injury and survival
